These results are taken from article PMC10913065, “Rapid sp^3-Enriched Scaffold Generation via a Selective Aziridine Amide Ring-Opening Reaction” (The Journal of Organic Chemistry, 2024).

A short description of the series: Kinetic solubility assay (adapted shake flask method, McIlvaine buffer). The series is classed as physicochemical. The following applies: pH 6.8, aqueous buffer, kinetic from dmso stock. Here is the method:
10. Kinetic Solubility assay
Kinetic Solubility assay protocol
Adapted standard shake flask method to run in 1 mL 96-deep-well plates at a concentration of 100 µM in McIlvaine Buffer at pH values of 6.8 from 10 mM DMSO stock solutions.
Compounds are prepared in triplicate and incubated in buffer at room temperature for 18 hours while shaking at 700 RPM. After incubation the 96-deep-well plate is centrifuged at 5000 g for 10 minutes, half of the volume is transferred to another deep well plate and centrifuged again at 5000 g for 10 minutes. 200 µL are transferred from each well to a Greiner Bio-one 200 µL 96-well V-bottom plate and sealed. A six-point calibration curve is prepared for each compound ranging from 100 µM down to 0.5 µM. All samples are analyzed via UV-UHPLC on an Agilent 1290 Infinity (binary pump, auto-sampler, column compartment at 55 °C, and PDA) with a Phenomenex Kinetex EVO C18, 50 x 1 mm, 1.7 µm, 100 Å column, at 0.5 mL. Injections of 3 µL are analyzed with gradient elution using Milli-Q water with 0.05% trifluoroacetic acid (A1) and acetonitrile with 0.05% trifluoroacetic acid (B1) from 95:5 A1/B1 to 5:95 A1/B1 over 1.3 minutes with a 0.2 minute hold at 5:95 A1/B1. Wavelengths at 215 nm and 254 nm are monitored, peaks are integrated, and the peak area and peak height are used with linear regression analysis from the calibration curves to determine the solubility values.6 Kinetic Solubility assay data
A kinetic solubility for d, e, f, and g was calculated in the following Table.
Compound Kinetic solubility (µM, pH=6.8)
Table S7. Kinetic solubility for representative compounds.

Setting [1] is: pH=6.8, McIlvaine Buffer, 100 µM from 10 mM DMSO stock, room temperature, 18 hours, triplicate.

Molecules are shown by their SMILES. Values after ≈ are worked out from the molar mass of the structure shown.

`Cc1ccccc1Oc1ccccc1NC(=O)c1ccccc1` [d, reference compound]: the solubility (kinetic) (usually the concentration staying in solution when a stock, usually in DMSO, is diluted into the medium) at 18 h (at neutral pH) is 5.74 µM (≈ 1.74 µg/mL). Turning to `Cc1ccccc1O[C@H]1CCNC[C@@H]1NC(=O)c1ccccc1` [e], the kinetic solubility at 18 h runs as follows: (at neutral pH) 79.1 µM (≈ 24.5 µg/mL); under setting [1], 90.67 ± 0.32 µM (≈ 28.1 µg/mL).

As for `Cc1ccccc1O[C@H]1CNC[C@@H]1NC(=O)c1ccccc1` [f], the solubility (kinetic) at 18 h amounted to 90.7 µM (≈ 26.9 µg/mL) (at neutral pH) and 79.07 ± 0.44 µM (≈ 23.4 µg/mL) under setting [1]. Take `Cc1ccccc1O[C@H]1CCCNCC[C@@H]1NC(=O)c1ccccc1` [g]: the solubility (kinetic) at 18 h (at neutral pH) was 92.2 µM (≈ 31.2 µg/mL).
